Source: patent US20190185518A9, “WARHEAD-CONTAINING PEPTIDOMIMETIC MACROCYCLES AS MODULATORS OF BFL-1” (AILERON Therapeutics, Inc., priority 2017, published 2019)
Positions of bridges follow the written chain, without caps; N, C: chain ends. Non-standard residues stand in square brackets, D forms with d. Residues, ends and D or L forms follow the SMILES beside them. Phe(4-CF3) = N[C@@H](Cc1ccc(C(F)(F)F)cc1)C(=O)O; Bip = N[C@@H](Cc1ccc(-c2ccccc2)cc1)C(=O)O; hPhe = N[C@@H](CCc1ccccc1)C(=O)O; R8 = C=CCCCCCC[C@@](C)(N)C(=O)O; Cit = NC(=O)NCCC[C@H](N)C(=O)O; Chg = N[C@H](C(=O)O)C1CCCCC1; S5 = C=CCCC[C@](C)(N)C(=O)O; Aib = CC(C)(N)C(=O)O

Tests used:
Bcl-2 = Bcl-2 (Homo sapiens, UniProt P10415); experiment: Ki determination for Bcl-2 (BCL-2 family binding spectrum); conditions: read-out: Ki BCL-2
Excerpt: To assess the binding and affinity of compounds that antagonize the interaction between a peptide and an acceptor protein, a fluorescence polarization assay (FPA) utilizing a fluoresceinated peptidomimetic macrocycle derived from a peptidomimetic precursor sequence is used, for example. The FPA technique measures the molecular orientation and mobility using polarized light and fluorescent tracer. […] A compound that antagonizes the interaction between the fluoresceinated peptidomimetic macrocycle and an acceptor protein will be detected in a competitive binding FPA experiment.
For example, putative antagonist compounds (1 nM to 1 mM) and a fluoresceinated peptidomimetic macrocycle (25 nM) are incubated with the acceptor protein (50 nM) in binding buffer (140 mM NaCl, 50 mM Tris-HCL, pH 7.4) for 30 minutes at room temperature. Antagonist binding activity is measured, for example, by fluorescence polarization on a luminescence spectrophotometer (e.g. Perkin-Elmer LS50B). Kd values may be determined by nonlinear regression analysis using, for example, Graphpad Prism software (GraphPad Software, Inc., San Diego, Calif.).

Bcl-xL = Bcl-xL (Homo sapiens, UniProt Q07817); experiment: Ki determination for Bcl-xL (BCL-2 family binding spectrum); conditions: read-out: Ki BCL-XL
Method in brief: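 Competitive fluorescence polarization: compounds (1 nM–1 mM) with 25 nM fluoresceinated peptidomimetic macrocycle and 50 nM protein in 140 mM NaCl, 50 mM Tris-HCl pH 7.4, 30 min at room temperature. Constants from nonlinear regression.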

Mcl-1 = Mcl-1 (Homo sapiens, UniProt Q07820); experiment: Ki determination for Mcl-1 (BCL-2 family binding spectrum); conditions: read-out: Ki MCL-1
Method in brief: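 Binding to Mcl-1 was measured as displacement of a fluorescein-labelled macrocyclic peptidomimetic, read by fluorescence polarization. Constants were fitted by nonlinear regression.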

Sequence of Bcl-2 (P10415 whole entry, species assumed): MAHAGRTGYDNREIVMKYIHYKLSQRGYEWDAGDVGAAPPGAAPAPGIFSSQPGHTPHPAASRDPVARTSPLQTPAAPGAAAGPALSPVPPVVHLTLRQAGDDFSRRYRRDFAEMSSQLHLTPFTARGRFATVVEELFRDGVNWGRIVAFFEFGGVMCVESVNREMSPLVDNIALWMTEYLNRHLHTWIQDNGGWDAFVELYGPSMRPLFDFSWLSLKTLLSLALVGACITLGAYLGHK
Sequence of Mcl-1 (Q07820 whole entry, species assumed): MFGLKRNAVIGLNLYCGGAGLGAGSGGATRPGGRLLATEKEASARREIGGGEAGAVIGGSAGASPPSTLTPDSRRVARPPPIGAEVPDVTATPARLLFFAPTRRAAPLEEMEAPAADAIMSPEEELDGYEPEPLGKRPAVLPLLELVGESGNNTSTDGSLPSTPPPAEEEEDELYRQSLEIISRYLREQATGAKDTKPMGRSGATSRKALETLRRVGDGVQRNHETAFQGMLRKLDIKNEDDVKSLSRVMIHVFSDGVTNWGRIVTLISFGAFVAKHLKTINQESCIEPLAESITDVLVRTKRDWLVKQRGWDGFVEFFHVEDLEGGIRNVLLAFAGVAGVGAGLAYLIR
Sequence of Bcl-xL (Q07817 whole entry, species assumed): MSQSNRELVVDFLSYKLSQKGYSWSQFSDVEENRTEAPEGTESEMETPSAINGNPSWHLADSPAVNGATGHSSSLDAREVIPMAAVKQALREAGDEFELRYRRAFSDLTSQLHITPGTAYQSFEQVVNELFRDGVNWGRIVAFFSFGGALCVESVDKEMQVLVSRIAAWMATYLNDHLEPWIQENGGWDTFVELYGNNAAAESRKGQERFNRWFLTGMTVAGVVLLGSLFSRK

Q: With CC[C@H](C)[C@H](NC(C)=O)C(=O)N[C@@H](C)C(=O)N[C@@H](CCC(N)=O)C(=O)N[C@@H](C)C(=O)N[C@@H](CC(C)C)C(=O)N[C@@H](C)C(=O)N[C@]1(C)CCCCCCC=CCCC[C@@](C)(C(=O)N[C@@H](Cc2ccc(O)cc2)C(=O)N[C@@H](Cc2ccc(O)cc2)C(=O)N[C@@H](C)C(N)=O)NC(=O)[C@H](CC(N)=O)NC(=O)[C@H](Cc2ccccc2)NC(=O)[C@H](C)NC(=O)[C@H](CC(=O)O)NC(=O)CNC(=O)[C@H]([C@@H](C)CC)NC1=O [compound 1637] (Ac-IAQALA[R8]IGDAFN[S5]YYA-NH2; staple 7-14) as the molecule, how does the Ki (Bcl-2) read?
A: Its Ki is over 1000 nM.

Q: What about the Ki (Bcl-xL) of the same molecule?
A: Its Ki is over 1000 nM.

Q: Which results are given for CC[C@H](C)[C@H](NC(C)=O)C(=O)N[C@@H](Cc1c[nH]c2ccccc12)C(=O)N[C@H](C(=O)N[C@@H](C)C(=O)N[C@@H](CCC(N)=O)C(=O)N[C@@H](C)C(=O)N[C@@H](CC(C)C)C(=O)N[C@@H](CCCNC(=N)N)C(=O)N[C@]1(C)CCCCCCC=CCCC[C@@](C)(C(=O)N[C@@H](Cc2ccc(O)cc2)C(=O)N[C@@H](Cc2ccc(O)cc2)C(=O)N[C@@H](C)C(N)=O)NC(=O)[C@H](CC(N)=O)NC(=O)[C@H](CCc2ccccc2)NC(=O)[C@H](C)NC(=O)[C@H](CC(=O)O)NC(=O)CNC(=O)[C@H]([C@@H](C)CC)NC1=O)[C@@H](C)CC [compound 1743] (Ac-IWIAQALR[R8]IGDA[hPhe]N[S5]YYA-NH2; staple 9-16)?
A: Ki (Bcl-2): 38.9 nM; Ki (Mcl-1): 2.7 nM

Q: How did the Ki (Bcl-2) turn out when CC[C@H](C)[C@H](NC(C)=O)C(=O)N[C@@H](Cc1c[nH]c2ccccc12)C(=O)N[C@H](C(=O)N[C@@H](C)C(=O)N[C@@H](CCC(N)=O)C(=O)N[C@@H](C)C(=O)N[C@@H](CC(C)C)C(=O)N[C@@H](CCCNC(=N)N)C(=O)N[C@]1(C)CCCCCCC=CCCC[C@@](C)(C(=O)N[C@@H](Cc2ccc(O)cc2)C(=O)N[C@@H](Cc2ccc(O)cc2)C(=O)N[C@@H](C)C(N)=O)NC(=O)[C@H](CC(N)=O)NC(=O)[C@H](Cc2ccccc2)NC(=O)[C@H](C)NC(=O)[C@H](CC(=O)O)NC(=O)CNC(=O)[C@H]([C@@H](C)CC)NC1=O)C1CCCCC1 [compound 1713] (Ac-IW[Chg]AQALR[R8]IGDAFN[S5]YYA-NH2; staple 9-16) was run?
A: The Ki was 38.9 nM.

Q: What about the Ki (Mcl-1) of the same molecule?
A: The Ki was 4.6 nM.

Q: For CC[C@H](C)[C@H](NC(C)=O)C(=O)N[C@@H](Cc1c[nH]c2ccccc12)C(=O)N[C@H](C(=O)N[C@@H](C)C(=O)N[C@@H](CCC(N)=O)C(=O)N[C@@H](C)C(=O)N[C@@H](C)C(=O)N[C@@H](CCCNC(N)=O)C(=O)N[C@]1(C)CCCCCCC=CCCC[C@@](C)(C(=O)N[C@@H](Cc2ccc(O)cc2)C(=O)N[C@@H](Cc2ccc(O)cc2)C(=O)N[C@@H](C)C(N)=O)NC(=O)[C@H](CC(N)=O)NC(=O)[C@H](Cc2ccccc2)NC(=O)[C@H](C)NC(=O)[C@H](CC(=O)O)NC(=O)CNC(=O)[C@H]([C@@H](C)CC)NC1=O)[C@@H](C)CC [compound 1771] (Ac-IWIAQAA[Cit][R8]IGDAFN[S5]YYA-NH2; staple 9-16), which Ki (Bcl-2) is on record?
A: Its Ki is over 1000 nM.

Q: And the Ki (Mcl-1)?
A: Its Ki is over 1000 nM.

Q: Which results are given for CC[C@H](C)[C@H](NC(C)=O)C(=O)N[C@@H](Cc1c[nH]c2ccccc12)C(=O)N[C@H](C(=O)N[C@@H](C)C(=O)N[C@@H](CCC(N)=O)C(=O)N[C@@H](C)C(=O)N[C@@H](CC(C)C)C(=O)N[C@@H](CCCNC(=N)N)C(=O)N[C@]1(C)CCCCCCC=CCCC[C@@](C)(C(=O)N[C@@H](Cc2ccc(O)cc2)C(=O)N[C@@H](CCc2ccccc2)C(=O)N[C@@H](C)C(N)=O)NC(=O)[C@H](CC(N)=O)NC(=O)[C@H](Cc2ccccc2)NC(=O)[C@H](C)NC(=O)[C@H](CC(=O)O)NC(=O)CNC(=O)[C@H]([C@@H](C)CC)NC1=O)[C@@H](C)CC [compound 1757] (Ac-IWIAQALR[R8]IGDAFN[S5]Y[hPhe]A-NH2; staple 9-16)?
A: Ki (Bcl-2): 30.7 nM; Ki (Mcl-1): 8 nM

Q: Which Ki (Bcl-2) does the source give for CC[C@H](C)[C@H](NC(C)=O)C(=O)N[C@@H](Cc1c[nH]c2ccccc12)C(=O)N[C@H](C(=O)N[C@@H](C)C(=O)N[C@@H](CCC(N)=O)C(=O)N[C@@H](C)C(=O)N[C@@H](CC(C)C)C(=O)N[C@@H](CCCNC(N)=O)C(=O)N[C@]1(C)CCCCCCC=CCCC[C@@](C)(C(=O)N[C@@H](Cc2ccc(O)cc2)C(=O)N[C@@H](Cc2ccc(O)cc2)C(=O)N[C@@H](C)C(N)=O)NC(=O)[C@H](CC(N)=O)NC(=O)[C@H](Cc2ccccc2)NC(=O)[C@H](C)NC(=O)[C@H](CC(=O)O)NC(=O)CNC(=O)[C@H]([C@@H](C)CC)NC1=O)[C@@H](C)CC [compound 1655] (Ac-IWIAQAL[Cit][R8]IGDAFN[S5]YYA-NH2; staple 9-16) here?
A: The Ki was 212 nM.

Q: What about the Ki (Mcl-1) of the same molecule?
A: Its Ki is 7.5 nM.

Q: With CC[C@H](C)[C@H](NC(C)=O)C(=O)N[C@]1(C)CCCCCCC=CCCCC2(CCCC=CCCCCCC[C@@](C)(C(=O)N[C@@H](Cc3ccc(O)cc3)C(=O)N[C@@H](Cc3ccc(O)cc3)C(=O)N[C@@H](C)C(N)=O)NC(=O)[C@H](CC(N)=O)NC(=O)[C@H](Cc3ccccc3)NC(=O)[C@H](CCC(=O)O)NC(=O)[C@H](CC(=O)O)NC(=O)CNC(=O)[C@H]([C@@H](C)CC)NC2=O)NC(=O)[C@H](CCCNC(=N)N)NC(=O)[C@H](CC(C)C)NC(=O)[C@H](C)NC(=O)[C@H](CCC(N)=O)NC(=O)[C@H](C)NC(=O)[C@H]([C@@H](C)CC)NC1=O (some centres unmarked) [compound 1782] as the molecule, how does the Ki (Bcl-2) read?
A: The Ki was 22 nM.

Q: CC[C@H](C)[C@H](NC(C)=O)C(=O)N[C@@H](Cc1c[nH]c2ccccc12)C(=O)N[C@H](C(=O)N[C@@H](C)C(=O)N[C@@H](CCC(N)=O)C(=O)N[C@@H](CCC(=O)O)C(=O)N[C@@H](CC(C)C)C(=O)N[C@@H](CCCNC(=N)N)C(=O)N[C@]1(C)CCCCCCC=CCCC[C@@](C)(C(=O)N[C@@H](Cc2ccc(O)cc2)C(=O)N[C@@H](Cc2ccc(O)cc2)C(=O)N[C@@H](C)C(=O)N[C@@H](CCCNC(=N)N)C(=O)N[C@@H](CCCNC(=N)N)C(N)=O)NC(=O)[C@H](CC(N)=O)NC(=O)[C@H](Cc2ccccc2)NC(=O)[C@H](CCC(=O)O)NC(=O)[C@H](CC(=O)O)NC(=O)CNC(=O)[C@H]([C@@H](C)CC)NC1=O)[C@@H](C)CC [compound 1629] was tested. Which Ki (Bcl-2) did it give?
A: The Ki was 23.5 nM.

Q: Which Ki (Bcl-2) does the source give for CC[C@H](C)[C@H](NC(C)=O)C(=O)N[C@@H](Cc1c[nH]c2ccccc12)C(=O)N[C@H](C(=O)N[C@@H](C)C(=O)NC(C)(C)C(=O)N[C@@H](C)C(=O)N[C@@H](CC(C)C)C(=O)N[C@@H](CCCNC(=N)N)C(=O)N[C@]1(C)CCCCCCC=CCCC[C@@](C)(C(=O)N[C@@H](Cc2ccc(O)cc2)C(=O)N[C@@H](Cc2ccc(O)cc2)C(=O)N[C@@H](C)C(N)=O)NC(=O)[C@H](CC(N)=O)NC(=O)[C@H](Cc2ccccc2)NC(=O)[C@H](C)NC(=O)[C@H](CC(=O)O)NC(=O)CNC(=O)[C@H]([C@@H](C)CC)NC1=O)[C@@H](C)CC [compound 1708] (Ac-IWIA[Aib]ALR[R8]IGDAFN[S5]YYA-NH2; staple 9-16) here?
A: Its Ki is 120 nM.

Q: How did the Ki (Bcl-2) turn out when CC[C@H](C)[C@H](NC(C)=O)C(=O)N[C@@H](Cc1c[nH]c2ccccc12)C(=O)N[C@@H](Cc1ccc(-c2ccccc2)cc1)C(=O)N[C@@H](C)C(=O)N[C@@H](CCC(N)=O)C(=O)N[C@@H](C)C(=O)N[C@@H](CC(C)C)C(=O)N[C@@H](CCCNC(=N)N)C(=O)N[C@]1(C)CCCCCCC=CCCC[C@@](C)(C(=O)N[C@@H](Cc2ccc(O)cc2)C(=O)N[C@@H](Cc2ccc(O)cc2)C(=O)N[C@@H](C)C(N)=O)NC(=O)[C@H](CC(N)=O)NC(=O)[C@H](Cc2ccccc2)NC(=O)[C@H](C)NC(=O)[C@H](CC(=O)O)NC(=O)CNC(=O)[C@H]([C@@H](C)CC)NC1=O [compound 1686] (Ac-IW[Bip]AQALR[R8]IGDAFN[S5]YYA-NH2; staple 9-16) was run?
A: The Ki was over 1000 nM.

Q: What about the Ki (Mcl-1) of the same molecule?
A: Its Ki is 11 nM.

Q: CC[C@H](C)[C@H](NC(C)=O)C(=O)N[C@@H](Cc1c[nH]c2ccccc12)C(=O)N[C@H](C(=O)N[C@@H](C)C(=O)N[C@@H](CCC(N)=O)C(=O)N[C@@H](C)C(=O)N[C@@H](Cc1ccc(C(F)(F)F)cc1)C(=O)N[C@@H](CCCNC(=N)N)C(=O)N[C@]1(C)CCCCCCC=CCCC[C@@](C)(C(=O)N[C@@H](Cc2ccc(O)cc2)C(=O)N[C@@H](Cc2ccc(O)cc2)C(=O)N[C@@H](C)C(N)=O)NC(=O)[C@H](CC(N)=O)NC(=O)[C@H](Cc2ccccc2)NC(=O)[C@H](C)NC(=O)[C@H](CC(=O)O)NC(=O)CNC(=O)[C@H]([C@@H](C)CC)NC1=O)[C@@H](C)CC [compound 1694] (Ac-IWIAQA[Phe(4-CF3)]R[R8]IGDAFN[S5]YYA-NH2; staple 9-16) was tested. Which Ki (Bcl-2) did it give?
A: The Ki was over 1000 nM.

Q: Which Ki (Bcl-2) does the source give for CC[C@H](C)[C@H](NC(C)=O)C(=O)N[C@@H](Cc1c[nH]c2ccccc12)C(=O)N[C@H](C(=O)N[C@@H](C)C(=O)N[C@@H](C)C(=O)N[C@@H](C)C(=O)N[C@@H](CC(C)C)C(=O)N[C@@H](CCCNC(=N)N)C(=O)N[C@]1(C)CCCCCCC=CCCC[C@@](C)(C(=O)N[C@@H](Cc2ccc(O)cc2)C(=O)N[C@@H](Cc2ccc(O)cc2)C(=O)N[C@@H](C)C(N)=O)NC(=O)[C@H](CCC(=O)O)NC(=O)[C@H](Cc2ccccc2)NC(=O)[C@H](C)NC(=O)[C@H](CC(=O)O)NC(=O)CNC(=O)[C@H]([C@@H](C)CC)NC1=O)[C@@H](C)CC [compound 1749] (Ac-IWIAAALR[R8]IGDAFE[S5]YYA-NH2; staple 9-16) here?
A: The Ki was 30.7 nM.

Q: What about the Ki (Mcl-1) of the same molecule?
A: The Ki was 1.8 nM.
